Measured values: BindingDB's records for doi:10.1016/j.bmcl.2017.11.013 (Csir-Indian Institute of Integrative Medicine, 2017)

Key:
[1] = Inhibition of human CYP1A1 transfected in HEK293 cells assessed as protection against CYP1A1 mediated B[a]P toxicity by measuring B[a]P EC50 at 20 uM by MTT assay (Rvb =1.2+/- 0.3 uM)
[2] = Inhibition of human CYP1B1 expressed in MDA-MB-468 cells assessed as potentiation of cisplatin-induced cytotoxicity by measuring cisplatin EC50 at 20 uM (Rvb = 6.70+/- 0.7 uM)
[3] = Inhibition of human CYP1B1 expressed in MDA-MB-468 cells assessed as potentiation of cisplatin-induced cytotoxicity by measuring cisplatin EC50 at 6.6 uM (Rvb = 6.70+/- 0.7 uM)

| SMILES | EC50 [1] [µM] | EC50 [2] [µM] | EC50 [3] [µM] |
| --- | --- | --- | --- |
| CC(C)=CCc1cc(C2CC(=O)c3ccc(O)c(CC=C(C)C)c3O2)ccc1O (stereo not given) | 2.3 | 5.2 |  |
| O=c1cc(-c2ccccc2)oc2c1ccc1ccccc12 |  | 5.1 |  |
| O=c1c(O)c(-c2ccc(O)c(O)c2)oc2cc(O)cc(O)c12 [2-(3,4-dihydroxyphenyl)-3,5,7-trihydroxy-chromone;hydrate] | 8.8 |  | 1.1 |
